From patent US10336732B2, “1-heterocyclyl isochromanyl compounds and analogs for treating CNS disorders” (Sunovion Pharmaceuticals Inc., priority 2015, dated 2019)

Key:
[1] = tested on: α2 (non-selective); assay: In vitro radioligand binding assay, α2 (non-selective), [3H]RX 821002; design: concentration or dose not given beside the values; settings: rat cerebral cortex membranes
Procedure: (§1) Certain compounds were tested by in vitro binding assays using standard procedures. […] These receptors and assays are well known to those skilled in the art, as exemplified by the following: Abramovitz, M. et al. (2000), Biochem. Biophys. Acta., 1483: 285-293 (EP4, IP (PGI2)); Aharony, D. et al. (1993), Mol. Pharmacol., 44: 356-363 (NK2); Ardati, A. et al. (1997), Mol. Pharmacol., 51: 816-824 (NOP (ORL1)); Bignon, E. et al. (1999), J. Pharmacol. Exp. Ther. 289: 742-751 (CCK1 (CCKA)); Bloomquist, B. T. et al. (1998), Biochem. Biophys. Res. Commun., 243: 474-479 (GAL2); Brockhaus, M. et al. (1990), Proc. Natl. Acad. Sci. U.S.A., 87: 3127-3131 (TNF-α); Brown, G. B. (1986), J. Neurosci., 6: 2064-2070 (Na+ channel (site 2)); Buchan, K. W. et al. (1994), Brit. J. Pharmacol., 112: 1251-1257 (ETA); Cesura, A. M. et al. (1990), Mol. Pharmacol., 37: 358-366 (MAO-A); Choi, D. S. et al. (1994), FEBS Lett., 352: 393-399 (5-HT2B); Clark, A. F. et al. (1996), Invest. Ophtalmol. Vis. Sci., 37: 805-813 (GR); Couvineau, A. et al. (1985), Biochem. J., 231: 139-143 (VPAC1 (VIP1)); Dorje, F. et al. (1991), J. Pharmacol. Exp. Ther., 256: 727-733 (M1, M2, M3, M4); Ferry, G. et al. (2001), Eur. J. Pharmacol., 417: 77-89 (PPARγ); Fuchs, S. et al. (2001), Mol. Med., 7: 115-124 (ETB); Fuhlendorff, J. et al. (1990), Proc. Natl. Acad. Sci. U.S.A., 87: 182-186 (Y2); Ganapathy M E. et al. (1999), J. Pharmacol. Exp. Ther., 289: 251-260 (sigma (non-selective)); Gopalakrishnan, M. et al. (1996), J. Pharmacol. Exp. Ther., 276: 289-297 (N neuronal α4β2); Greengrass, P. and Bremner, R. (1979), Eur. J. Pharmacol., 55: 323-326 (α1 (non-selective)); Grandy, D. K. et al. (1989), Proc. Natl. Acad. Sci. U.S.A., 86: 9762-9766 (D25); Guard, S. et al. (1993), Eur. J. Pharmacol., 240:177-184 (BB (non-selective)); Heuillet, E. et al. (1993), J. Neurochem., 60: 868-876 (NK1, P2X); Hope, A. G. et al. (1996), Brit. J. Pharmacol., 118: 1237-1245 (5-HT3); Hoyer, D. et al. (1985), Eur. J. Pharmacol., 118: 1-12 (5-HT1B); Hugues, M. et al. (1982), J. Biol. Chem., 257: 2762-2769 (5-HT2A, SKCa channel); Joseph, S. S. et al. (2004), Naun.-Sch. Arch. Pharm., 369: 525-532 (β2); Le, M. T. et al. (2005), Eur. J. Pharmacol., 513: 35-45 (AT1); Le Fur, G. et al. (1983), Life Sci., 33: 449-457) (BZD (peripheral); Lee, Y. M. et al. (1993), J. Biol. Chem., 268: 8164-8169 (CCK2 (CCKB)); Leurs, R. et al. (1994), Brit. J. Pharmacol., 112: 847-854 (H2); Levin, M. C. et al. (2002), J. Biol. Chem., 277: 30429-30435 (11); Lewin, A. H. et al. (1989), Mol. Pharmacol., 35: 189-194 (Cl− channel (GABA-gated)); Lukas, R. J. (1986), J. Neurochem., 46: 1936-1941 (N muscle-type); Luthin, D. R. et al. (1995), Mol. Pharmacol., 47: 307-313; (A2A); Mackenzie, R. G. et al. (1994), Eur. J. Pharmacol., 266: 79-85 (D3); Mulheron, J. G. et al. (1994), J. Biol. Chem., 269: 12954-12962 (5-HT1A); Meng, F. et al. (1993), Proc. Natl. Acad. Sci. U.S.A., 90: 9954-9958 (κ (KOP)); Monsma, F. J. et al. (1993), Mol. Pharmacol., 43: 320-327 (5-HT6); Neote, K. et al. (1993), Cell, 72: 415-425 (CCR1); Pacholczyk, T. et al. (1991), Nature, 350: 350-354 (sst (non-selective, norepinephrine transporter)); Peralta, E. G. et al. (1987), Embo. J., 6: 3923-3929 (M3); Pristupa, Z. B. et al. (1994), Mol. Pharmacol., 45: 125-135 (dopamine transporter); Pruneau, D. et al. (1998), Brit. J. Pharmacol., 125: 365-372 (B2); Rees, S. et al. (1994), FEBS Lett., 355: 242-246 (5-HT5a); Reynolds, I. J. et al. (1986), J. Pharmacol. Exp. Ther., 237: 731-738 (Ca2+ channel (L, verapamil site)); Rinaldi-Carmona, M. et al. (1996), J. Pharmacol. Exp. Ther., 278: 871-878 (CB1); Salvatore, C. A. et al. (1993), Proc. Natl. Acad. Sci. U.S.A., 90: 10365-10369 (A3); Sarau, H. M. et al. (1997), J. Pharmacol. Exp. Ther., 281: 1303-1311 (NK3); Schioth, H. B. et al. (1997), Neuropeptides, 31: 565-571 (MC4); Sharples, C. […]

[2] = target: T1, 5-HT7 (Homo sapiens, UniProt P34969); assay: In vitro radioligand binding assay, 5-HT7, [3H]LSD; design: concentration or dose not given beside the values; settings: human recombinant (CHO cells)
T1 construct: expressed in transfected cells; host or cells: CHO cells
Procedure: as §1

T1 sequence (P34969 whole entry): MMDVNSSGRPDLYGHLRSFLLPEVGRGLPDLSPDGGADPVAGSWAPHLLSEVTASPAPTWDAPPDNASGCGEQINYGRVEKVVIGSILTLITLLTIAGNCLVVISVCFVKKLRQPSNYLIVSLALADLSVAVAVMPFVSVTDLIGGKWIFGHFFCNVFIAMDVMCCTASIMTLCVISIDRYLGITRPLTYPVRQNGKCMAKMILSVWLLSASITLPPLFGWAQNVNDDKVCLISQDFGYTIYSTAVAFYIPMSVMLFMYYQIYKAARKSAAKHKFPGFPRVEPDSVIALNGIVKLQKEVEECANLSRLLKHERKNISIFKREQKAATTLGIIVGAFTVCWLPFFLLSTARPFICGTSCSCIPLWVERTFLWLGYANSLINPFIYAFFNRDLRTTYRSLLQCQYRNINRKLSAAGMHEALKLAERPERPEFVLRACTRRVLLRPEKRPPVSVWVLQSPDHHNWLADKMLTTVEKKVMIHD

Fc1cccc2c1[C@H]([C@@H]1CCCN1)OCC2 [Compound I-1, (S)-2-((R)-8-fluoroisochroman-1-yl)pyrrolidine]
α2 percent inhibition of specific binding [1]: 95%
5HT7 percent inhibition of specific binding [2]: 88%

Fc1ccc2c(c1)[C@H]([C@@H]1CCCN1)OCC2 [Compound I-5, (2S)-2-((R)-7-fluoroisochroman-1-yl)pyrrolidine]
α2 percent inhibition of specific binding [1]: 96%
5HT7 percent inhibition of specific binding [2]: 60%

Fc1ccc2c(c1)CCO[C@H]2[C@@H]1CCCN1 [Compound I-9, (S)-2-((R)-6-fluoroisochroman-1-yl)pyrrolidine]
α2 percent inhibition of specific binding [1]: 91%
5HT7 percent inhibition of specific binding [2]: 80%

Clc1ccc2c(c1)[C@H]([C@@H]1CCCN1)OCC2 [Compound I-29, (S)-2-((R)-7-chloroisochroman-1-yl)pyrrolidine]
α2 percent inhibition of specific binding [1]: 97%
5HT7 percent inhibition of specific binding [2]: 52%

Fc1cccc2c1[C@H]([C@@H]1CCN1)OCC2 [Compound I-83, (S)-2-((R)-8-fluoroisochroman-1-yl)azetidine]
α2 percent inhibition of specific binding [1]: 77%
5HT7 percent inhibition of specific binding [2]: 99%

Fc1ccc2c(c1)CCO[C@H]2[C@@H]1CCN1 [Compound I-90, (S)-2-((R)-6-fluoroisochroman-1-yl)azetidine]
α2 percent inhibition of specific binding [1]: 71%
5HT7 percent inhibition of specific binding [2]: 96%

Fc1cccc2c1CCO[C@@H]2[C@@H]1CCN1 [Compound I-94, (S)-2-((S)-5-fluoroisochroman-1-yl)azetidine]
5HT7 percent inhibition of specific binding [2]: 74%

Fc1cccc2c1CCO[C@@H]2[C@H]1CCN1 [Compound I-96, (R)-2-((S)-5-fluoroisochroman-1-yl)azetidine]
α2 percent inhibition of specific binding [1]: 81%
5HT7 percent inhibition of specific binding [2]: 69%
